# Assay results: ChEMBL document CHEMBL5532637, “Antimicrobial activity of natural and semi-synthetic carbazole alkaloids” (Eur J Med Chem, 2023)
# Legend:
# Bacillus cereus = assay: Antibacterial activity against Bacillus cereus MTCC 121 assessed as inhibition of bacterial growth by broth micro-dilution assay; format: functional
# Staphylococcus aureus [1] = assay: Antibacterial activity against Staphylococcus aureus MTCC 96 assessed as inhibition of bacterial growth by broth micro-dilution assay; format: functional
# Escherichia coli [2] = assay: Antibacterial activity against Escherichia coli MTCC 1652 assessed as inhibition of bacterial growth by broth micro-dilution assay; format: functional
# Pseudomonas putida = assay: Antibacterial activity against Pseudomonas putida MTCC102 assessed as inhibition of bacterial growth by broth micro-dilution assay; format: functional
# Xanthomonas oryzae = assay: Antimicrobial activity against Xanthomonas oryzae incubated for 24 to 48 hrs by turbidimeter test; format: functional, organism-based
# Xanthomonas axonopodis = assay: Antimicrobial activity against Xanthomonas axonopodis incubated for 24 to 48 hrs by turbidimeter test; format: functional, organism-based
# [3] = Antimicrobial activity against Pseudomonas syringae pv. actinidiae incubated for 24 to 48 hrs by turbidimeter test; format: functional
# Cryptococcus neoformans [4] = assay: Antimicrobial activity against Cryptococcus neoformans ATCC6603 assessed as inhibition of microbial growth incubated for 18 hrs by resazurin dye based two-fold serial dilution assay; format: functional
# Cryptococcus neoformans [5] = assay: Antimicrobial activity against Cryptococcus neoformans clinical isolate assessed as inhibition of microbial growth incubated for 18 hrs by resazurin dye based two-fold serial dilution assay; format: functional
# Staphylococcus aureus [6] = assay: Antimicrobial activity against Staphylococcus aureus assessed as inhibition of microbial growth incubated for 18 hrs by resazurin dye based two-fold serial dilution assay; format: functional
# Staphylococcus aureus [7] = assay: Antimicrobial activity against Staphylococcus aureus clinical isolate assessed as inhibition of microbial growth incubated for 18 hrs by resazurin dye based two-fold serial dilution assay; format: functional
# Escherichia coli [8] = assay: Antibacterial activity against Escherichia coli assessed as zone of inhibition at 400 ug/ml by disc-diffusion method; format: functional; conditions: read-out: IZ
# Bacillus subtilis [9] = assay: Antibacterial activity against Bacillus subtilis assessed as zone of inhibition at 400 ug/ml by disc-diffusion method; format: functional; conditions: read-out: IZ
# Pseudomonas aeruginosa [10] = assay: Antibacterial activity against Pseudomonas aeruginosa assessed as zone of inhibition at 400 ug/ml by disc-diffusion method; format: functional; conditions: read-out: IZ
# Macrophomina phaseolina = assay: Antifungal activity against Macrophomina phaseolina assessed as zone of inhibition at 400 ug/ml by disc-diffusion method; format: functional; conditions: read-out: IZ
# Fusarium oxysporum = assay: Antifungal activity against Fusarium oxysporum assessed as zone of inhibition at 400 ug/ml by disc-diffusion method; format: functional; conditions: read-out: IZ
# Aspergillus flavus = assay: Antifungal activity against Aspergillus flavus assessed as zone of inhibition at 400 ug/ml by disc-diffusion method; format: functional; conditions: read-out: IZ
# Aspergillus niger = assay: Antimicrobial activity against Aspergillus niger RCMB02329 assessed as inhibition of microbial growth; format: functional
# Geotrichum candidum = assay: Antimicrobial activity against Geotrichum candidum RCMB050102 assessed as inhibition of microbial growth; format: functional
# Staphylococcus aureus [11] = assay: Antimicrobial activity against Staphylococcus aureus RCMB000106 assessed as inhibition of microbial growth; format: functional
# Bacillus subtilis [12] = assay: Antimicrobial activity against Bacillus subtilis RCMB 000107 assessed as inhibition of microbial growth; format: functional
# Escherichia coli [13] = assay: Antimicrobial activity against Escherichia coli RCMB000103 assessed as inhibition of microbial growth; format: functional
# Klebsiella pneumoniae = assay: Antimicrobial activity against Klebsiella pneumoniae RCMB000111 assessed as inhibition of microbial growth; format: functional
# Salmonella typhimurium [14] = assay: Antimicrobial activity against Salmonella typhimurium RCMB010072 assessed as inhibition of microbial growth; format: functional, Salmonella enterica subsp. enterica serovar Typhimurium; conditions: Salmonella enterica
# Pseudomonas aeruginosa [15] = assay: Antibacterial activity against Pseudomonas aeruginosa MTCC 1688 assessed as inhibition of bacterial growth incubated for 24 hrs by two-fold serial dilution method; format: functional
# Escherichia coli [16] = assay: Antibacterial activity against Escherichia coli MTCC 1687 assessed as inhibition of bacterial growth incubated for 24 hrs by two-fold serial dilution method; format: functional
# Staphylococcus aureus [17] = assay: Antibacterial activity against Staphylococcus aureus MTCC 96 assessed as inhibition of bacterial growth incubated for 24 hrs by two-fold serial dilution method; format: functional
# Bacillus subtilis [18] = assay: Antibacterial activity against Bacillus subtilis MTCC441 assessed as inhibition of bacterial growth incubated for 24 hrs by two-fold serial dilution method; format: functional
# Staphylococcus aureus [19] = assay: Antibacterial activity against Staphylococcus aureus assessed as inhibition of bacterial growth by broth microdilution method; format: functional
# Streptococcus pyogenes = assay: Antibacterial activity against Streptococcus pyogenes assessed as inhibition of bacterial growth by broth dilution method; format: functional
# Salmonella typhimurium [20] = assay: Antibacterial activity against Salmonella typhimurium assessed as inhibition of bacterial growth by broth dilution method; format: functional, Salmonella enterica subsp. enterica serovar Typhimurium; conditions: Salmonella enterica
# Escherichia coli [21] = assay: Antibacterial activity against Escherichia coli assessed as inhibition of bacterial growth by broth dilution method; format: functional
# Staphylococcus aureus [22] = assay: Antibacterial activity against Staphylococcus aureus […] assessed as inhibition of bacterial growth; format: functional
# Bacillus subtilis [23] = assay: Antibacterial activity against Bacillus subtilis DSM 6333 assessed as inhibition of bacterial growth; format: functional
# Proteus mirabilis = assay: Antibacterial activity against Proteus mirabilis ATCC 29906 assessed as inhibition of bacterial growth; format: functional
# Candida albicans [24] = assay: Antifungal activity against Candida albicans ATCC 1231 assessed as inhibition of fungal growth; format: functional
# Staphylococcus aureus [25] = assay: Antibacterial activity against Staphylococcus aureus assessed as inhibition of bacterial growth incubated for 24 hrs by macrodilution broth method; format: functional
# Bacillus subtilis [26] = assay: Antibacterial activity against Bacillus subtilis assessed as inhibition of bacterial growth incubated for 24 hrs by macrodilution broth method; format: functional
# Escherichia coli [27] = assay: Antibacterial activity against Escherichia coli assessed as inhibition of bacterial growth incubated for 24 hrs by macrodilution broth method; format: functional
# Pseudomonas aeruginosa [28] = assay: Antibacterial activity against Pseudomonas aeruginosa assessed as inhibition of bacterial growth incubated for 24 hrs by macrodilution broth method; format: functional
# Staphylococcus aureus [29] = assay: Antimicrobial activity against Staphylococcus aureus 4220 assessed as inhibition of microbial growth incubated for 24 hrs by two-fold serial dilution assay; format: functional
# Staphylococcus aureus [30] = assay: Antimicrobial activity against methicillin-resistant Staphylococcus aureus CCARM 3167 assessed as inhibition of microbial growth incubated for 24 hrs by two-fold serial dilution assay; format: functional
# Streptococcus mutans = assay: Antimicrobial activity against Streptococcus mutans 3289 assessed as inhibition of microbial growth incubated for 24 hrs by two-fold serial dilution assay; format: functional
# Escherichia coli [31] = assay: Antimicrobial activity against Escherichia coli 1924 assessed as inhibition of microbial growth incubated for 24 hrs by two-fold serial dilution assay; format: functional
# Candida albicans [32] = assay: Antimicrobial activity against Candida albicans 7535 assessed as inhibition of microbial growth incubated for 24 hrs by two-fold serial dilution assay; format: functional
# Candida albicans [33] = assay: Antifungal activity against Candida albicans assessed as inhibition of fungal growth incubated for 1 to 5 days; format: functional; conditions: time 1-5 day
smiles,measurement,setting,value
O=C(Nc1ccc(F)cc1)C(=O)c1ccc2c(c1)c1ccccc1n2Cc1ccc(Cl)cc1,MIC,Bacillus cereus,8 µg/mL
same,MIC,Staphylococcus aureus [1],8 µg/mL
same,MIC,Escherichia coli [2],8 µg/mL
same,MIC,Pseudomonas putida,8 µg/mL
OC(CNCc1ccc(Cl)cc1)Cn1c2ccccc2c2ccccc21 (stereo unspecified),EC50,Xanthomonas oryzae,1.27 µg/mL
same,EC50,Xanthomonas axonopodis,1.96 µg/mL
same,EC50,[3],3.83 µg/mL
COc1cccc2c1[nH]c1ccc(C(=O)N3CCCCC3C)cc12 (stereo unspecified),MIC,Cryptococcus neoformans [4],6.25 µg/mL
same,MIC,Cryptococcus neoformans [5],12.5 µg/mL
same,MIC,Staphylococcus aureus [6],6.25 µg/mL
same,MIC,Staphylococcus aureus [7],6.25 µg/mL
CCn1c2ccccc2c2cc3c(cc21)C(=O)CCC(=O)N3,zone of inhibition at 400 µg/mL,Escherichia coli [8],20 mm
same,zone of inhibition at 400 µg/mL,Bacillus subtilis [9],27 mm
same,zone of inhibition at 400 µg/mL,Pseudomonas aeruginosa [10],16 mm
same,zone of inhibition at 400 µg/mL,Macrophomina phaseolina,19 mm
same,zone of inhibition at 400 µg/mL,Fusarium oxysporum,18 mm
same,zone of inhibition at 400 µg/mL,Aspergillus flavus,19 mm
CCn1c2ccccc2c2cc(/C=N/NC3=NC(=O)/C(=N\Nc4ccccc4)S3)ccc21,MIC,Aspergillus niger,0.49 µg/mL
same,MIC,Geotrichum candidum,0.49 µg/mL
same,MIC,Staphylococcus aureus [11],0.49 µg/mL
same,MIC,Bacillus subtilis [12],0.49 µg/mL
same,MIC,Escherichia coli [13],0.49 µg/mL
same,MIC,Klebsiella pneumoniae,0.49 µg/mL
same,MIC,Salmonella typhimurium [14],0.49 µg/mL
CCOC(=O)C1COC2=C(C(=O)N3c4ccccc4C4C=CC=C2C43)C1c1ccc(OC)cc1 (stereo unspecified),MIC,Pseudomonas aeruginosa [15],12.5 µg/mL
same,MIC,Escherichia coli [16],6.25 µg/mL
same,MIC,Staphylococcus aureus [17],12.5 µg/mL
same,MIC,Bacillus subtilis [18],12.5 µg/mL
CCOC(=O)C1=C(C)NC2=C(C(=O)c3ccccc32)C1c1ccc2c(c1)c1ccccc1n2CC (stereo unspecified),MIC,Staphylococcus aureus [19],32 µg/mL
same,MIC,Streptococcus pyogenes,64 µg/mL
same,MIC,Salmonella typhimurium [20],32 µg/mL
same,MIC,Escherichia coli [21],32 µg/mL
c1ccc2c(c1)c1ccccc1n2Cn1cncn1,MIC,Staphylococcus aureus [22],31.2 µg/mL
same,MIC,Bacillus subtilis [23],31.2 µg/mL
same,MIC,Proteus mirabilis,31.2 µg/mL
same,MIC,Candida albicans [24],0.016 µg/mL
COC(=O)C(C)c1ccc2c3cc(Cl)ccc3n(CC(=O)Nc3c(C)cccc3C)c2c1 (stereo unspecified),MIC,Staphylococcus aureus [25],0.25 µg/mL
same,MIC,Bacillus subtilis [26],0.25 µg/mL
same,MIC,Escherichia coli [27],0.25 µg/mL
same,MIC,Pseudomonas aeruginosa [28],0.25 µg/mL
CN(C)C1=NC(c2ccc3c(c2)c2ccccc2n3Cc2ccc(Cl)cc2Cl)N=C(N)N1 (stereo unspecified),MIC,Staphylococcus aureus [29],0.5 µg/mL
same,MIC,Staphylococcus aureus [30],0.5 µg/mL
same,MIC,Streptococcus mutans,0.5 µg/mL
same,MIC,Escherichia coli [31],0.5 µg/mL
same,MIC,Candida albicans [32],0.5 µg/mL
CCn1c2ccccc2c2cc(-c3cc(-c4cc(Cl)cc(O)c4O)n[nH]3)ccc21,MIC,Candida albicans [33],25 µg/mL
